For one test, the target named is T1, Aurora + TPX2 (Homo sapiens, UniProt O14965).
T1 sequence (O14965 1-403): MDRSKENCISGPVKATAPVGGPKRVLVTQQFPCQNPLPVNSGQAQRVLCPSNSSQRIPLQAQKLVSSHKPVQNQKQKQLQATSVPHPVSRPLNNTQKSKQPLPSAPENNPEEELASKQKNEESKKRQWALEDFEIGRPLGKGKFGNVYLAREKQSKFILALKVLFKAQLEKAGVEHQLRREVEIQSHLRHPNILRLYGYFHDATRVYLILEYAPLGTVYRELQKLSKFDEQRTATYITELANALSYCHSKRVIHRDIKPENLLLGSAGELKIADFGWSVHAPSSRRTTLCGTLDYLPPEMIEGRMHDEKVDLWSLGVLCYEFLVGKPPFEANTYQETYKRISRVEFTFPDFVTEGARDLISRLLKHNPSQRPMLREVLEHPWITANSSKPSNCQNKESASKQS
Nature of the test: luminescence ATP detection kinase assay (EasyLite-Kinase), Aurora + TPX2. Type of test: biochemical. The settings on record: 150 nM Aurora with TPX2, 20 μM ATP, 100 μM Kemptide, 20 min room temperature. As to the method: (§1) The ability of compounds (7) and (12) to inhibit Aurora A was tested in a luminescence ATP detection assay system for kinase applications. Briefly, the compound of the present invention was added to a solution of Aurora A in HEPES buffer (150 nM Aurora +/− TPX2, 25 mM HEPES pH 7.4, 5 mM MgCl2, 0.01% Tween 20; 0.1% BSA; 100 μM Kemptide [Promega Corporation, Madison, Wis.]); final assay concentrations). The addition of an ATP solution (20 μM final concentration) initiated the reaction. The reaction was carried out for 20 min at room temperature and terminated by the addition of equal volumes of EasyLite Solution (Perkin Elmer Corporation, Boston, Mass.) followed by monitoring the luminescence in a Wallac Envision plate reader (Perkin Elmer Corporation, Boston, Mass.). The EasyLite-Kinase® is an ATP monitoring system based on firely (Photinus pyralis) luciferase for the evaluation of kinase activity. The system relies on the consumption of ATP during a kinase reaction and is commercially available.

The target of test [1] is T2, Aurora A (Homo sapiens, UniProt O14965).
T2 sequence (O14965 1-403): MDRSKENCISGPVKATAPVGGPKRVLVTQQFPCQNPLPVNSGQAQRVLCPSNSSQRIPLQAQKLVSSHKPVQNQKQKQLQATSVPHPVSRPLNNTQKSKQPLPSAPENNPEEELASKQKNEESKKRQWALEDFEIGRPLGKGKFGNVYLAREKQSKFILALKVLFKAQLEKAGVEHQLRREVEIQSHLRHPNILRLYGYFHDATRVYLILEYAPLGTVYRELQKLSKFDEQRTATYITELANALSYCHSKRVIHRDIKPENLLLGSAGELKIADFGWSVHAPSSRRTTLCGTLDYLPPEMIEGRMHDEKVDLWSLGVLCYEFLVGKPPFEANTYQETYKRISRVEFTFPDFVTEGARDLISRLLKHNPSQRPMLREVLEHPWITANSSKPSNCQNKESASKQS
As to the kind of experiment: luminescence ATP detection kinase assay (EasyLite-Kinase), Aurora without TPX2. The test is classed as biochemical. The conditions noted are these: for IC50: 150 nM Aurora without TPX2, 20 μM ATP, 100 μM Kemptide, 20 min room temperature. The protocol:
as §1

The target of a further test is protein kinase A, PKA (Homo sapiens, UniProt P17612). As to the kind of experiment: luminescence ATP detection kinase assay, PKA counter-test. Type of test: biochemical.
For test [2], the target named is T2, Aurora A. As to the kind of experiment: phosphatase assay, PP1 treatment of Aurora-A, Western blot. The test is classed as biochemical. The settings on record: TPX2 protein 3 μM, Aurora-A 2 μM, PP1 0.5 h at 30° C., FIG. 1E. As to the method:
Samples were diluted in phosphatase buffer (50 mM Tris-HCl pH 7, 0.1 mM EDTA, 1 mM MnCl2, 5 mM caffeine, 5 mM DTT, 0.025% Tween 20) and incubated in the absence or presence of PP1 (α isoform, NEB) for 0.5 h at 30° C. Afterwards proteins were separated by SDS-PAGE and analyzed by Western blotting with anti-Aurora-A or anti-phospho-Aurora-A (Cell Signalling, 1:10000 dilution).
A general note: A western blot detects proteins with antibodies after separation by electrophoresis.

The target of test [3] is T2, Aurora A. As to the kind of experiment: immunoprecipitation from mitotic HeLa cell extract. The test is classed as binding. The settings on record: GST fusion proteins 1 μM, FIG. 1B.
Experimental: HeLa cells (CCL2; ATCC, Manassas, Va.) were grown in 10% fetal calf serum (FCS) and 2 mM L-glutamine in modified Eagle's medium at 37° C. and 5% CO2. Cells were arrested in S phase using a double thymidine (2 mM) block as described (Stein, 1994) and released from S phase by washing away the thymidine. After 10 h, cells were trypsinized, incubated for 10 min in ice-cold lysis buffer (25 mM Tris pH 7.6, 200 mM NaCl, 1% Triton, protease inhibitors), and centrifuged for 10 min at 15,000 g.
For coating beads with anti-GST, 6 μg of antibody were incubated with 20 μl of protein A-conjugated Dynabeads 280 (Dynal) in a total volume of 100 μl PBS-T (PBS, 0.1% Triton X-100), for at least 1 h at 4° C. The beads were washed twice with PBS-T and twice with HeLa cells lysis buffer or CSF-XB (10 mM Hepes pH 7.7, 50 mM sucrose, 100 mM KCl, 2 mM MgCl2, 0.1 mM CaCl2 and 5 mM EGTA). 50 μl extract was incubated with GST, GST TPX2 1-43, GST TPX2 15-43, GST TPX2 Xenopus or GST TPX2(1-39) Xenopus proteins (final concentrations: 250 nM Xenopus; 1 μM HeLa) in the absence or presence of RanQ69L-GTP (16 μm) for 15 minutes at 20° C. and then added to the beads. […] The samples were then subjected to gel electrophoresis and analyzed by Western blotting with anti-GST, anti-Xenopus TPX2, anti-Xenopus Aurora-A or anti-human Aurora-A.
For test [4], the target named is T2, Aurora A. As to the kind of experiment: in vitro kinase assay, phosphorylation of histone H3 (autoradiography). The settings on record: full length Aurora-A, TPX2 protein at 4 μM, FIG. 1C. Type of test: biochemical. On the set-up: were incubated with full length Aurora-A or AuroraΔN in kinase buffer; made in house; host or cells: bacteria (printed only for the full-length protein used as immunogen).

Consider four molecules from patent US20080051327A1, “Crystals of an Aurora-A Tpx2 Complex, Tpx2 Binding Site of Aurora-A, Aurora-A Ligands and Their Use” (EMBL, priority 2003, published 2008).

Broadly, the IC50 is the concentration at which inhibition is half-maximal.

Regarding `OCc1cn(CCCCc2ccccn2)c2ccc(Oc3ccc(O)cc3)cc12` [(7)], the IC50 at Aurora + TPX2 was above 500 µM; on Aurora A [1], 79 µM; on protein kinase A, PKA it was above 500 µM. Further, the “inhibition of Aurora (in words)” value against Aurora A [1] is given as “inhibited Aurora significantly”.
Turning to `COC(=O)C(CC(=O)NCc1cn(CCCCc2ccccn2)c2ccc(Oc3ccc(O)cc3)cc12)NC(C)=O` (stereo not drawn) [(12), 3-N-aspartylaminomethyl-5-O-p-hydroxyphenyl-1-N-(4-pyridylbutyl)-indole], the IC50 on Aurora + TPX2 was 37 µM; against Aurora A [1] it was 37 µM; against protein kinase A, PKA, above 500 µM. At Aurora A [1], the “inhibition of Aurora (in words)” value is given as “inhibited Aurora significantly”.
For the molecule “TPX2(15-43): shorter construct of human TPX2 encompassing residues 15-43 (DFINFSSLDDEGDTQNIDSWFEEKANLEN)”, in the test with Aurora A [2], the “protection of Aurora-A from dephosphorylation by PP1” value is recorded as “fully dephosphorylated as in the absence of TPX2 altogether”. For the same molecule, the “interaction with Aurora-A in HeLa extract” value with Aurora A [3] is given as “unable to do so”.

B1: Full-length TPX2: full-length TPX2 protein, specific activator of Aurora-A (protein, UniProt Q9ULW0 1-747, looked up)
chain: MSQVKSSYSYDAPSDFINFSSLDDEGDTQNIDSWFEEKANLENKLLGKNGTGGLFQGKTPLRKANLQQAIVTPLKPVDNTYYKEAEKENLVEQSIPSNACSSLEVEAAISRKTPAQPQRRSLRLSAQKDLEQKEKHHVKMKAKRCATPVIIDEILPSKKMKVSNNKKKPEEEGSAHQDTAEKNASSPEKAKGRHTVPCMPPAKQKFLKSTEEQELEKSMKMQQEVVEMRKKNEEFKKLALAGIGQPVKKSVSQVTKSVDFHFRTDERIKQHPKNQEEYKEVNFTSELRKHPSSPARVTKGCTIVKPFNLSQGKKRTFDETVSTYVPLAQQVEDFHKRTPNRYHLRSKKDDINLLPSKSSVTKICRDPQTPVLQTKHRARAVTCKSTAELEAEELEKLQQYKFKARELDPRILEGGPILPKKPPVKPPTEPIGFDLEIEKRIQERESKKKTEDEHFEFHSRPCPTKILEDVVGVPEKKVLPITVPKSPAFALKNRIRMPTKEDEEEDEPVVIKAQPVPHYGVPFKPQIPEARTVEICPFSFDSRDKERQLQKEKKIKELQKGEVPKFKALPLPHFDTINLPEKKVKNVTQIEPFCLETDRRGALKAQTWKHQLEEELRQQKEAACFKARPNTVISQEPFVPKKEKKSVAEGLSGSLVQEPFQLATEKRAKERQELEKRMAEVEAQKAQQLEEARLQEEEQKKEELARLRRELVHKANPIRKYQGLEIKSSDQPLTVPVSPKFSTRFHC
modifications: full-length
Turning to B1, the “stimulation of histone H3 phosphorylation by Aurora-A” value with Aurora A [4] is recorded as “increases the activity of the kinase, but appears less effective than the fragment”. The “protection of Aurora-A from dephosphorylation by PP1” value in the test with Aurora A [2] is “prevents dephosphorylation of Thr288AUR”.
